Entries after “also recorded” stand apart in the source; their conditions may differ.
Key:
[1] = tested on: HeLa cells; assay: Hoechst 33342 nuclear staining for apoptotic nuclei; type: cell-based
Protocol: Treated and control cells were incubated in DMEM with 0.5% FBS for 24 h at 37° C., then collected by detachment and centrifugation and incubated in a growth medium (FBS free) containing 5 μM H0342 for 5 min at 37° C. Nuclear fragmentation was assessed by fluorescence microscopy using Nikon FxA microscope. The EX wavelength was 330–380 nm with EM monitored at 420–450 nm.

[2] = tested on: HeLa cells; assay: Flow cytometric detection of DNA fragmentation (PI staining); type: cell-based; conditions: for induction of apoptosis: evidenced by Hoechst staining, gel electrophoresis and flow cytometry; for hypoploid cell population: photosensitized cells
Protocol: Stock sensitizer-DMSO solutions were diluted with DMEM containing 1% FBS. […] The cells were detached using 0.2% trypsin/0.5 mM EDTA solution in PBS and centrifuge-washed to remove unbound dyes. The cells were then transferred to 35-mm dishes (Costar)) 1 ml inch dish containing 3×10s cells, and irradiated with different doses of light. The light source was a Red Light Treatment Instrument (Institute of Electronic Academia Sinica, China), Its total power output, more than 90% at 600–700 nm was 50 mW cm^2 at the position of the, samples, measured with BTY-8204 radiometer (Beijing Institute of Solar Energy, China). Immediately after irradiation, 2 ml DMEM containing 7.5% FBS was added to each dish. Then a portion of the cells was assessed for survival as follows and the rest were incubated in the medium until they could be checked for nucleus staining, DNA fragmentation and flow cytometry analysis.
A propidium iodide (PI) staining technique was used to assess the status of cellular DNA [19]. Cells were washed twice with ice-cold PBS and then permeabilized and fixed in 80% ethanol at 4° C. for 24 h. Cells were washed twice with PBS and suspended in PBS with RNase A (100 mg/ml) and incubated at 37° C. for 30 min. At this point the PI solution (10 mg/ml in PBS) was added to the cells in RNase solution, and the incubation was continued for 30 min at 4° C. After that, the cells were analyzed by Epics XL flow cytometer (Coulter, USA).

[3] = tested on: HeLa cells; assay: Sensitizer localization by fluorescence microscopy; type: cell-based; conditions: 4 μM; HB 15 min, 2-BA-2-DMHB 6 h
Protocol: Cells growing on glass were incubated in DMEM with 4 μM HB for 15 min or with 4 μM 2-BA-2-DMHB for 6 h at 37° C. Fluorescence was visualized by Nikon FXA microscope to assess sites of sensitizer location (excitation=400–450 nm, emission=600–650 nm).

[4] = tested on: HeLa cells; conditions: for photopotentiation factor (LD50 dark / LD50 with 24 J cm−2 red light): MTT assay
Protocol: Stock sensitizer-DMSO solutions were diluted with DMEM containing 1% FBS. […] The cells were detached using 0.2% trypsin/0.5 mM EDTA solution in PBS and centrifuge-washed to remove unbound dyes. The cells were then transferred to 35-mm dishes (Costar)) 1 ml inch dish containing 3×10s cells, and irradiated with different doses of light. […] Immediately after irradiation, 2 ml DMEM containing 7.5% FBS was added to each dish. Then a portion of the cells was assessed for survival as follows and the rest were incubated in the medium until they could be checked for nucleus staining, DNA fragmentation and flow cytometry analysis.
Cell survival was estimated by the MTT assay [11,15,16]. PDT-treated cells were transferred into flat-bottomed 96-well plates (Costar) 100 μl in each well containing 1×10^4 cells and the cells were incubated at 37° C. in a. CO2, incubator for 20 h. Viability was determined by adding 10 μl MTT (10 mg ml^−1) to each well, and the mixture was incubated for 4 h at 37° C. Culture medium was then replaced with dimethylsulfoxide to dissolve the formazan crystals. […] Samples were measured in 12 replicates and each experiment was repeated at least twice. Survival of PDT-treated cells was normalized against cells incubated with photosensitizer alone.

[5] = tested on: HeLa cells; assay: Dark toxicity, MTT assay; type: cell-based; conditions: HB 15 min, 2-BA-2-DMHB 6 h; highest concentration tested 100 μM
Protocol: The dark toxicity characteristic of each compound was assessed separately following a similar procedure for cell exposure to graded doses of […] for 15 min or 2-BA-2-DMHB for 6 h. Precautions were taken to avoid exposure of the cells to light throughout the period when'the cells were exposed to, or contained, photosensitizers.

[6] = tested on: HeLa cells; assay: DNA agarose gel electrophoresis (DNA ladder); type: cell-based; conditions: for DNA ladder, photosensitizer alone: 4 μM incubation, no light; for DNA ladder at early times: 3 and 6 h post-irradiation; for DNA ladder after photosensitization: 24 h after treatment at LD70 and LD90
Protocol: Stock sensitizer-DMSO solutions were diluted with DMEM containing 1% FBS. […] The cells were detached using 0.2% trypsin/0.5 mM EDTA solution in PBS and centrifuge-washed to remove unbound dyes. The cells were then transferred to 35-mm dishes (Costar)) 1 ml inch dish containing 3×10s cells, and irradiated with different doses of light. […] Immediately after irradiation, 2 ml DMEM containing 7.5% FBS was added to each dish.
The DNA was extracted as described previously [18] with some modification. Cells (2×106) were detached with the use of 0.2% trypsin/0.5 mM EDTA solution washed with PBS and pelleted by centrifugation. The cell pellets were suspended in lysis buffer consisting of 0.5% sodium dodecyl sulfate (SDS), 2 mM EDTA, 100 mg/ml proteinase K, and SO mM Tris-HC buffer (pH 8.0). After 24 h lysis at 37° C., the DNA was extracted with an equal volume of water-saturated phenol/chloroform/isoamyl alcohol (25:24:1). The aqueous phase was collected and DNA was precipitated with 0.5 volume ammonium acetate and 2.5 volumes cold absolute ethanol, and stored overnight at −20° C. The DNA was dissolved in TE (0.5 M EDTA in 1 M Tris-HCl buffer, pH 8.0) and incubated with DNase-free RNase A (100 mg/ml) at 37° C. for 1 h. The samples were electrophoresed for 3 h at 60 V in 1.5% agarose gel containing 0.5 μg ml^−1 ethidium bromide and visualized by UV transillumination.

[7] = Absorption spectra of photosensitizers in chloroform; type: physicochemical; conditions: for log6 at first band λmax / log6 at second band λmax / log6 at third band λmax / λmax (nm), first band / λmax (nm), second band / λmax (nm), third band: in chloroform
[8] = Superoxide anion radical generation by DMPO spin-trapping ESR; type: physicochemical; conditions: in DMSO, relative to HB
Protocol: (§1) Singlet oxygen yields were determined as previously reported by the DPA bleaching method. The electron spin resonance (ESR) measurement of, spin trapping of DMPO was used to determine the generation of O2 by hypocrellins.
DMPO spin-trapping ESR measurement was used here to verify the formation of superoxide anion radical generated by photosensitization of HB and 2-BA-2-DMHB.

[9] = tested on: HeLa cells; assay: Distribution ratio (cellular uptake by fluorescence); type: cell-based; conditions: for distribution ratio [Sen/g cells]/[Sen/ml medium]: extra-cellular drug 0 to 5 μM, HB 15 min, 2-BA-2-DMHB 6 h, 37° C.
Protocol: HeLa cells were maintained as monolayer culture in DMEM containing 5% FBS and antibiotics PS (80 U/ml penicillin and 100 μg/ml streptomycin) at 37° C. in a humidified 5% CO2 incubator.
The distribution ratio or the photosensitizer is defined as [Sen/g cells]/[Sen/ml medium]. The values were measured as described previously. Exponentially growing cells were incubated in DMEM with HB for 15 min or with 2-BA-2-DMHB for 6 h at 37° C., ranging from 0 to 5 μM. […] The washed pellets (2×10^6) were dispersed in 3 ml of 10 mM Triton X-100 detergent. These solutions were excited at 460 nm and the fluorescence emission spectra were acquired using Hitachi-F4500 fluorescence spectrophotometer. Fluorescence at 610 nm was determined, corrected for the fluorescence of control (drug-free) sample, and compared with a standard fluorescence-intensity curve prepared with HB and 2-BA-2-DMHB solutions of known concentration.

[10] = Singlet oxygen yield by DPA bleaching method; type: physicochemical; conditions: in DMSO
Protocol: as §1

[11] = tested on: AIDS; conditions: cited from earlier work
[12] = in vivo; cited from earlier work
[13] = tested on: EMT6 Ed mouse tumor cells; conditions: 24 J cm−2; Estey's results [8]; cited from earlier work

Structure (SMILES) | induction of apoptosis [2] | hypoploid cell population ([2]; LD90) | sites of sensitizer localization [3] | photopotentiation factor (LD50 dark / LD50 with 24 J cm−2 red light) [4] | LD50 in the dark [5] | DNA ladder, photosensitizer alone [6] | DNA ladder at early times [6] | DNA ladder after photosensitization [6] | log6 at first band λmax [7] | log6 at second band λmax [7] | log6 at third band λmax [7] | λmax (nm), first band [7] | λmax (nm), second band [7] | λmax (nm), third band [7] | distribution ratio [Sen/g cells]/[Sen/ml medium] [9] | toxicity in animals [12] | also measured
CCCCNc1c(O)c2c(=O)cc(OC)c3c4c(OC)cc(=O)c5c(O)c(OC)c6c(c(c1C(C(C)=O)=C(C)C6)c23)c54 [Example 2-BA-2-DMHB, 2-butylamino-2-demethoxy-hypocrellin B] | induced apoptosis | appearance of hypoploid cell population | primarily at ER; also recorded: mainly localized at endoplasmic reticulum | more than 250 fold | more than 100 μM | No DNA ladder was observed | No obvious DNA ladder was detected | characteristic DNA ladder observed | 4.06 | 4.09 | 4.10 | 463 nm | 583 nm | 621 nm | 107.2±4.3 |  | nuclear morphology in the absence of light irradiation ([1]; 4 μM, 6 h, dark control): remained intact; apoptotic nuclei after photosensitization ([1]; LD70, 24 h post-irradiation): apoptotic nuclei were detected; speed of apoptosis induction ([2]; post-irradiation, LD90): induced apoptosis more quickly than HB; photopotentiation relative to HB ([4]; in vitro): over 25 fold; concentration causing 50% cytotoxicity at light dose of 24 J cm−2 ([4]; red light 24 J cm−2): 0.25–0.5 FM; extinction coefficient at 583 nm relative to HB at 548 nm [7]: 2.5 fold; extinction coefficient at 621 nm relative to HB at 580 nm [7]: over 3.8 fold; Relative quantum yields (O2−) ([8]; listed as 2-BA-2-DMHD): 2.7; intra-cellular level relative to HB ([9]; equimolar levels of the drugs): approximately two fold as much as HB; also recorded: approximately two times as much as that of HB
COc1c(O)c2c(=O)cc(OC)c3c4c(OC)cc(=O)c5c(O)c(OC)c6c(c(c1CC(C)=C6C(C)=O)c23)c54 [HB, 3,10-dihydroxyl-4,9-dione-1,12-(2′-methyl-3′-actyl-2′,3′-dehydro)propilidene(1′,3′)-2,6,7,11-tetramethoxyl-perylene, reference compound] | induced apoptosis | appearance of hypoploid cell population | prominent lysosomal uptake, and endoplasmic reticulum (ER) staining; also recorded: mainly localized at lysosomal and endoplasmic reticulum | 10 fold | about 20 μM | No DNA ladder was observed | No obvious DNA ladder was detected | characteristic DNA ladder observed | 4.06 | 3.70 | 3.52 | 466 nm | 548 nm | 580 nm | 49.1±2.2 | low toxicity | Quantum yields (1O2), singlet oxygen yield [10]: 0.76; anti-AIDS action [11]: distinct anti-AIDS action; Relative quantum yields (O2−) [8]: 1; photopotentiation factor [13]: 10
COc1c(O)c2c(=O)cc(OC)c3c4c(OC)cc(=O)c5c(O)c(OC)c6c(c(c1CC(C)(O)C6C(C)=O)c23)c54 (stereo not drawn) [hypocrellin A, 3,10-dihydroxyl-4,9-dione-1,12-(2′-hydroxyl-2′-methyl-3′-actyl)propilidene(1′,3′)-2,6,7,11-tetramethoxyl-perylene] |  |  |  |  |  |  |  |  |  |  |  |  |  |  |  | low toxicity | 

Source: patent US7157477B2, “Aliphatic amino-substituted demethoxylated hypocrellins and their synthesis” (Altachem Pharma Ltd., priority 2000, dated 2007)
